Laboratory results as given in patent US6048854A, “2,3-diaminopropionic acid derivative” (Sumitomo Pharmaceuticals Company, Limited, priority 1993, dated 2000).
Where two headings read alike, the source gives them in different places.

Key:
[1] = test system: platelet aggregation; test: Platelet aggregation inhibitory activity (ADP-induced, human platelet rich plasma); assay type: cell-based; conditions: Homo sapiens, Table 3, same manner as Example 17
Summary of the method: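 Citrated human platelet-rich plasma […] was stirred with test compound for 2 min at 37 °C. Aggregation was then induced with ADP at 3 μg/ml final and monitored by nephelometry. IC50 is the concentration giving 50% inhibition of aggregation.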

[2] = test system: platelet aggregation; test: Platelet aggregation inhibitory activity (ex vivo) after oral administration; assay type: in vivo; conditions: Cavia porcellus, guinea pig, oral 0.1 mg/kg, ADP 10 μg/ml
Summary of the method: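 Guinea pigs dosed orally at 0.1 mg/kg; citrated carotid blood taken before and at 0.5, 1, 2, 4 and 6 h. PRP aggregation induced by ADP (10 μg/ml final) at 37° C, measured turbidimetrically; inhibition = (1 − MAR sample/MAR predose) × 100.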

[3] = test system: human fibronectin; test: Binding assay of platelet to adhesive protein: fibronectin (receptor binding inhibition); conditions: Table 4; fixed activated human platelets, 37° C., 60 minutes
Description: (§1) The blood was taken out from the elbow vein of a normal volunteer, and mixed with 1/10 volume of 3.8% sodium citrate. The blood was centrifuged at 1,000 rpm (150 g) for 10 minutes, and the supernatant is collected as a platelet rich plasma (PRP). The precipitates are centrifuged at 11,000 rpm (6000 g) for two minutes, and the supernatant is collected as a platelet poor plasma (PPP). To PRP is added prostaglandin I2 (PGl2) at a final concentration of 50 ng/ml, and the mixture was centrifuged at 11000 rpm for two minutes to give human platelet. The platelet was activated by washing with 3.8 mM HEPES-buffer (pH 7.4, Tyrode-HEPES buffer) containing 0.14 M sodium chloride, 2.7 mM potassium chloride, 3.7 mM sodium dihydrogen phosphate, 0.98 mM magnesium chloride, 1 mg/ml glucose, 50 ng/ml PGl2 and 0.35% bovine serum albumin (BSA), adding thereto 5 μM epinephrine, and 30 μM ADP (adenosine diphosphate), followed by being allowed to stand at room temperature for five minutes. To the activated platelet was added 0.05% p-formaldehyde, and the mixture was allowed to stand at room temperature for 30 minutes to give the fixed platelet, which was suspended in Tyrode-HEPES buffer to give a platelet suspension of a concentration of 2×10^8 ml^-1.
(§2) Human fibrinogen from which fibronectin was previously removed by passing through gelatin-cepharose, human fibronectin or human vitronectin was diluted with 0.1 M aqueous sodium hydrogen carbonate solution to a concentration of 5 μg/ml, and the protein solution is put into a 96-well microplate at a volume of 200 μl/well. The microplate was allowed to stand at 4° C. overnight. The plate was washed with phosphate buffered saline (PBS), and subjected to blocking with 3% BSA at 37° C. for one hour. To the plate were added a platelet suspension (final concentration, 10^8 ml^-1) and a test compound of various concentrations (total volume, 200 μl/well), and the plate was incubated at 37° C. for 60 minutes. The plate was treated with 1000-fold diluted enzyme (HRP)-labelled anti-mouse IgG polyclonal antibody at 37° C. for 60 minutes, and thereto was added HRP chromogenic substrate (0.1 M phosphate buffer containing 0.4 mg/ml O-phenylenediamine,0.01% hydrogen peroxide, 0.1 M citric acid, pH 5), and reacted at room temperature for 15 minutes. The reaction was terminated by adding thereto 4.5 M sulfuric acid at a volume of 25 μl/well, and the absorbance at 490 nm was measured.

[4] = test system: human vitronectin; test: Binding assay of platelet to adhesive protein: vitronectin (receptor binding inhibition); conditions: Table 4; fixed activated human platelets, 37° C., 60 minutes; read-out: receptor binding inhibition (IC50), Bitronectin
Description: as §1, §2

[5] = target: T1, human fibrinogen (Homo sapiens, UniProt P05106+P08514); test: Binding assay of platelet to adhesive protein: fibrinogen (receptor binding inhibition); conditions: Table 4; fixed activated human platelets, 37° C., 60 minutes
T1 construct: centrifuged at 11000 rpm for two minutes to give human platelet; from tissue
T1 sequence (P08514 32-887 limits assumed): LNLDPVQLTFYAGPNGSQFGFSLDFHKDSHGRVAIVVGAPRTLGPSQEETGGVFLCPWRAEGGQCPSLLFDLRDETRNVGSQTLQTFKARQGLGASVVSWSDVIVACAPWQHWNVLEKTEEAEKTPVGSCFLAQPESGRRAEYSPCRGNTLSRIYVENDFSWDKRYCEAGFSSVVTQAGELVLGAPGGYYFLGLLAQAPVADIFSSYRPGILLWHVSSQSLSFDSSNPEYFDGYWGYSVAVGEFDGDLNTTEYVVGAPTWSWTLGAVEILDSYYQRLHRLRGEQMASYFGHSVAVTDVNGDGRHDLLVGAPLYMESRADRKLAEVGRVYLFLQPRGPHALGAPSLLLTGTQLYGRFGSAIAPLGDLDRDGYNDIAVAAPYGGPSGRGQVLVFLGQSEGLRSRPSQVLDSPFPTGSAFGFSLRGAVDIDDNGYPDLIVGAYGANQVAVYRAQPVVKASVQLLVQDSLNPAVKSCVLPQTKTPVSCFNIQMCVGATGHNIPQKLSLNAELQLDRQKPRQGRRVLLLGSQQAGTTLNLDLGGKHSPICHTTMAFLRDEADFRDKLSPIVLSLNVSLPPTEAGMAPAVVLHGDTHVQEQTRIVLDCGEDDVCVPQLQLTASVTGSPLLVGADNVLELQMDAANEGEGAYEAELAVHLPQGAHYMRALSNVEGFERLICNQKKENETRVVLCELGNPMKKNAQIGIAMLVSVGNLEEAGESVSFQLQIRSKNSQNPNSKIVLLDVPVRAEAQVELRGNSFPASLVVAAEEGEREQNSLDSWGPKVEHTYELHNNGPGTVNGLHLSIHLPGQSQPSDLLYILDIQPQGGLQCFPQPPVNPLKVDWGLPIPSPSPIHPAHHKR
T1 sequence (P08514 891-1039 limits assumed): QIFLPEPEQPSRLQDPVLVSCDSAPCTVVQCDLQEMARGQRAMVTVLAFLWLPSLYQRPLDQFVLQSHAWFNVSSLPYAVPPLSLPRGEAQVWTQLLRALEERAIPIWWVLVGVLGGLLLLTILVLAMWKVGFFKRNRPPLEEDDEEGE
T1 sequence (P05106 27-788): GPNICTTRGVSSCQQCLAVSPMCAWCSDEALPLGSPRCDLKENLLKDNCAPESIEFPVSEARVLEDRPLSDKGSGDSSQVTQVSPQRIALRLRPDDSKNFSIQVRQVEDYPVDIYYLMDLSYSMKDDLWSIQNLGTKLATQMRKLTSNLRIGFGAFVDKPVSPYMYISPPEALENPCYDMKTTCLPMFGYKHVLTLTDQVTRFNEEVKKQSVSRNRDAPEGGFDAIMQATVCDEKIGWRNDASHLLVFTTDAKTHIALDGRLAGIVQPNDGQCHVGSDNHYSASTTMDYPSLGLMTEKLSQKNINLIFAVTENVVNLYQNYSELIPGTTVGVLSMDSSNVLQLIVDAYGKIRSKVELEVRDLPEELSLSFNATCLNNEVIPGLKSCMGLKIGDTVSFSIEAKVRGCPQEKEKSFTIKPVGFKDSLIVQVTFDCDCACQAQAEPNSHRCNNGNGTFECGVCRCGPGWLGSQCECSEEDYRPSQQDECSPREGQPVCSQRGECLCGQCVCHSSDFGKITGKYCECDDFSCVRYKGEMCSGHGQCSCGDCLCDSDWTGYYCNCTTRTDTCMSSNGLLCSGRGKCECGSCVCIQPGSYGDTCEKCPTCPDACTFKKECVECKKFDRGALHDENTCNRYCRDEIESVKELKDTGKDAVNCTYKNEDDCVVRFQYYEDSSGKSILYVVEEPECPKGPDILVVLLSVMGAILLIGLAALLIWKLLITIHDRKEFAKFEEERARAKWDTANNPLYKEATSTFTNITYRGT
Description: as §1, §2

[6] = 0.5 hr, read-out: platelet aggregation inhibitory rate (%), 0.5 hr
[7] = 1 hr, read-out: platelet aggregation inhibitory rate (%), 1 hr
[8] = 2 hrs, read-out: platelet aggregation inhibitory rate (%), 2 hrs
[9] = 4 hrs, read-out: platelet aggregation inhibitory rate (%), 4 hrs
[10] = 6 hrs, read-out: platelet aggregation inhibitory rate (%), 6 hrs

| SMILES | IC50 [1] | IC50 [3] | IC50 [4] | IC50 [5] | inhibition in vivo at 0.1 mg/kg [2, 6] | inhibition in vivo at 0.1 mg/kg [2, 7] | inhibition in vivo at 0.1 mg/kg [2, 8] | inhibition in vivo at 0.1 mg/kg [2, 9] | inhibition in vivo at 0.1 mg/kg [2, 10] |
| --- | --- | --- | --- | --- | --- | --- | --- | --- | --- |
| N=C(N)c1ccc(OCCCC(=O)NC[C@H](NS(=O)(=O)c2ccccc2C(F)(F)F)C(=O)O)cc1 [Example 82, (2S)-3-(4-(4-amidinophenoxy)butanoylamino)-2-(2-trifluoromethyl)benzenesulfonylaminopropanoic Acid] | 31 nM | 19 nM | 270 nM | 1.2 nM | 81% | 66% | 54% | 52% | 51% |
| CCc1ccc(S(=O)(=O)N[C@@H](CNC(=O)CCCOc2ccc(C(=N)N)cc2)C(=O)O)cc1 [Example 83, (2S)-3-(4-(4-amidinophenoxy)butanoylamino)-2-(4-ethyl)benzenesulfonylaminopropanoic Acid] | 30 nM | 770 nM | 7800 nM | 22 nM | 50% | 47% | 48% | 32% | 41% |
| Cc1cc(C)c(S(=O)(=O)N[C@@H](CNC(=O)CCCCOc2ccc(C(=N)N)cc2)C(=O)O)c(C)c1 [Example 86, (2S)-3-(5-(4-amidinophenoxy)pentanoylamino)-2-(2,4,6-trimethyl)benzenesulfonylaminopropanoic Acid] | 56 nM | 120 nM | 500 nM | 1.1 nM | 46% | 0% | 0% | 0% | 0% |
| Cc1cc(C)c(S(=O)(=O)N[C@@H](CNC(=O)CCCCCc2ccc(C(=N)N)cc2)C(=O)O)c(C)c1 [Example 92, (2S)-3-(6-(4-amidinophenyl)hexanoylamino)-2-(2,4,6-trimethyl)benzenesulfonylaminopropanoic Acid] | 37 nM | 24 nM | 500 nM | 3.9 nM | 68% | 34% | 24% | 47% | 0% |
| COc1ccc(S(=O)(=O)N[C@@H](CNC(=O)CC2CCN(c3ccc(C(=N)N)cc3)CC2)C(=O)O)cc1 [Example 93, (2S)-3-(2-(1-(4-amidinophenyl)-4-piperidyl)ethanoylamino)-2-(4-methoxy)benzenesulfonylaminopropanoic Acid] | 93 nM | 95 nM | 3500 nM | 15 nM | 4% | 27% | 69% | 44% | 12% |

The next molecules have a lower IC50 [1] than those just listed; values first:

| IC50 [1] | IC50 [3] | IC50 [4] | IC50 [5] | SMILES | inhibition in vivo at 0.1 mg/kg [2, 6] | inhibition in vivo at 0.1 mg/kg [2, 7] | inhibition in vivo at 0.1 mg/kg [2, 8] | inhibition in vivo at 0.1 mg/kg [2, 9] | inhibition in vivo at 0.1 mg/kg [2, 10] |
| --- | --- | --- | --- | --- | --- | --- | --- | --- | --- |
| 26 nM | 20 nM | 270 nM | 4.8 nM | N=C(N)c1ccc(OCCCCC(=O)NC[C@H](NS(=O)(=O)c2ccccc2[N+](=O)[O-])C(=O)O)cc1 [Example 85, (2S)-3-(5-(4-amidinophenoxy)pentanoylamino)-2-(2-nitro)benzenesulfonylaminopropanoic Acid] | 36% | 41% | 44% | 31% | 17% |
| 25 nM | 210 nM | 2700 nM | 12 nM | Cc1cc(C)c(S(=O)(=O)N[C@@H](CNC(=O)CCCCc2ccc(C(=N)N)cc2)C(=O)O)c(C)c1 [Example 87, (2S)-3-(5-(4-amidinophenyl)pentanoylamino)-2-(2,4,6-trimethyl)benzenesulfonylaminopropanoic Acid] | 100% | 100% | 100% | 100% | 80% |
| 23 nM | 50 nM | 1300 nM | 4.7 nM | N=C(N)c1ccc(CCCCCC(=O)NC[C@H](NS(=O)(=O)c2ccccc2)C(=O)O)cc1 [Example 91, (2S)-3-(6-(4-amidinophenyl)hexanoylamino)-2-benzenesulfonylaminopropanoic Acid] | 51% | 41% | 31% | 14% | 39% |
| 17 nM | 390 nM | 4900 nM | 10 nM | CCc1ccc(S(=O)(=O)N[C@@H](CNC(=O)CCNC(=O)c2ccc(C(=N)N)cc2)C(=O)O)cc1 [Example 80, (2S)-3-(3-(4-amidinobenzoylamino)propanoylamino)-2-(4-ethyl)benzenesulfonylaminopropanoic Acid] | 100% | 100% | 75% | 79% | 74% |
| 16 nM | 25 nM | 160 nM | 9 nM | N=C(N)c1ccc(C(=O)NCCC(=O)NC[C@H](NS(=O)(=O)c2ccc(F)cc2)C(=O)O)cc1 [Example 78, (2S)-3-(3-(4-amidinobenzoylamino)propanoylamino)-2-(4-fluoro)benzenesulfonylaminopropanoic Acid] | 99% | 100% | 100% | 100% | 100% |
